Paper PMC11600167 (JACS Au, 2024)

How the values were obtained:
Test in all cases: glycan microarray on Cu2O@Ag slides
Format in all cases: binding
[1] = target: T1, hGal-1 (human galectin-1) (Homo sapiens, UniProt P09382); details: immobilised glycan via azide linker; hGal-1 25 μg/mL
T1 construct: gene LGALS1; dimeric lectin; construct details only in supplement

[2] = target: T2, hGal-7 (human galectin-7) (Homo sapiens, UniProt P47929); details: immobilised glycan via azide linker; hGal-7 25 μg/mL
T2 construct: gene LGALS7; construct details only in supplement

[3] = target: T3, hGal-3 (human galectin-3) (Homo sapiens, UniProt P17931); details: immobilised glycan via azide linker; hGal-3 25 μg/mL
T3 construct: gene LGALS3; chimera-type galectin; construct details only in supplement
T3 sequence (P17931 2-250): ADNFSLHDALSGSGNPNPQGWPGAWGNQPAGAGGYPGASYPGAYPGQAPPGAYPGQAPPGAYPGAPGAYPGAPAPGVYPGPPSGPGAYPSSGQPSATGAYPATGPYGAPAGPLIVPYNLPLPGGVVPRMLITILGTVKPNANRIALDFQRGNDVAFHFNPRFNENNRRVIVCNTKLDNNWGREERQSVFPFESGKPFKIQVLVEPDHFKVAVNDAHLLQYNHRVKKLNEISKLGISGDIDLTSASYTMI

T1 sequence (P09382 2-135): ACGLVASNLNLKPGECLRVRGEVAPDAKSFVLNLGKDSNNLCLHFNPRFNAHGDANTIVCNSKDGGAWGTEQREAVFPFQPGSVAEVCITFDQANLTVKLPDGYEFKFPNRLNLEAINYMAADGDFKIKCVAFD
T2 sequence (P47929 whole entry): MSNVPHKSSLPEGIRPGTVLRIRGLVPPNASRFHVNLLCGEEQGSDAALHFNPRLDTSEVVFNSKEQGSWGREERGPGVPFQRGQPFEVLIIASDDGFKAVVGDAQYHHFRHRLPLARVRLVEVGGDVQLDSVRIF

SMILES	glycan microarray on Cu2O@Ag slides [1]	glycan microarray on Cu2O@Ag slides [2]	glycan microarray on Cu2O@Ag slides [3]
CC(=O)N[C@H]1[C@H](O[C@H]2[C@@H](O)[C@@H](CO)O[C@@H](O[C@H]3[C@H](O)[C@@H](O)C(O)O[C@@H]3CO)[C@@H]2O)O[C@H](CO)[C@@H](O)[C@@H]1O[C@@H]1O[C@H](CO)[C@H](O)[C@H](O)[C@H]1O (stereo partly drawn) [LNT]	LNT and LNnT, respectively) further increased the binding affinity	with LNT showing the strongest binding affinity	–
CC(=O)N[C@H]1[C@H](O[C@H]2[C@@H](O)[C@@H](CO)O[C@@H](O[C@H]3[C@H](O)[C@@H](O)C(O)O[C@@H]3CO)[C@@H]2O)O[C@H](CO)[C@@H](O[C@@H]2O[C@H](CO)[C@H](O)[C@H](O)[C@H]2O)[C@@H]1O (stereo partly drawn) [LNnT]	–	–	The stronger affinity of LNnT compared to LNT
